A short description of the assay: Odor panel rating of glucose/gluconic acid solutions inoculated with odorous filtrate. The following applies: capped beakers, 40° C., 7 days. The method, then: Another 250 mL of (4) 10 mM glucose was put it in beaker 4. 20 mg protein/L of carbohydrate oxidase (Microdochium nivale carbohydrate oxidase, Novozymes A/S) was added to beaker 4 and it was kept at a 40° C. for 1 hr. 0.5 mL of odorous 3-day filtrate from the aerobic control in Example 2 was added to all of the beakers. The beaker were capped and placed in a 40° C. water bath for 7 days. At the end of the incubation, a panel smelled the samples as described in Example 1.

Regarding `O=C(O)[C@H](O)[C@@H](O)[C@H](O)[C@H](O)CO` [Gluconic Acid, gluconic acid], the “formation of odor (in words)” value was “will not lead to odorous smell”. Further, the “Odor Level” value (0.5 mL odorous filtrate added, rating 1 to 5, 5 worst) is recorded as 1.

For the origin of these results see US20050019315A1, “Odor control compositions and methods” (Novozymes North America, Inc., priority 2003, published 2005).
